Values quoted from earlier work, collected in patent publication US10585101B2, “Prostatic liquid biopsy for the detection of prostate cancer and benign prostatic hyperplasia” (WAVESENSE, INC., priority 2016, dated 2020).

Tested on: prostate cancer
Settings: long term use

SMILES: CC(C)(C)NC(=O)[C@H]1CC[C@H]2[C@@H]3CC[C@H]4NC(=O)C=C[C@]4(C)[C@H]3CC[C@]12C [finasteride, Finasteride]
- risk of low-grade prostate cancer: decreased the risk of low-grade prostate cancer
